Experimental data taken from patent publication US11453640B2, “Small molecules for disrupting the super elongation complex and inhibiting transcription elongation for cancer therapy” (NORTHWESTERN UNIVERSITY, priority 2018, dated 2022).

Experiments:
[1] = tested on: heat shock inducible genes in HCT-116 cells; assay: Heat shock induction in HCT-116 cells (Pol II ChIP-seq); type: cell-based, human; conditions: 5 hr pretreatment, 42° C. 1 hr
Description: FIG. 5. SEC inhibitors block transcription elongation in SEC-dependent rapid response models. (A-B) Genome browser tracks of Pol II ChIP-seq at the FOS, HSPD1 and HSPE1 genes after 1 hr heat shock of HCT-116 cells treated with vehicle (DMSO) or the indicated SEC inhibitors. HCT-116 cells were pretreated with inhibitors for 5 hr at 37° C. before exchanging medium with conditioned 42° C. medium. Dark and light colors indicate the 37 and 42° C. conditions, respectively. (C) Genome-wide identification of heat shock-induced genes with fold change of reads per million in gene bodies and pausing index. Red dots are the 136 heat shock-induced genes according to Pol II signals (fold change of reads per million in gene bodies >1.5 and pausing index decreased >1.5-fold in the DMSO-treated condition). […] Box plot analysis depicts the log2 fold changes of reads per million in gene bodies (E) (y axis) after heat shock with pretreatment of vehicle or SEC inhibitors. […]
Chromatin Immunoprecipitation Sequencing. […] ChIP-seq reads were aligned to the Drosophila genome (UCSC dm3) or human genome (UCSC hgl9). Alignments were processed with Bowtie version 1.1.2, allowing only uniquely mapping reads with up to two mismatches within the 50 bp read. The resulting reads were extended to 150 bp toward the interior of the sequenced fragment and normalized to total reads aligned (reads per million, r.p.m.). […]

[2] = tested on: SEC subunits AFF1, AFF4, ELL2, CCNT1 and CDK9 mRNA; assay: RNA-seq of SEC subunit mRNA expression in HEK293T cells; type: cell-based, human; conditions: 20 μM, 12 hr
From the text: FIG. 8, related to FIG. 1. Peptidomimetic identification of disruptors of the AFF4-CCNT1 interaction within the Super Elongation Complex. (A) Schematic of AlphaLISA assay of the AFF4-CCNT1 interaction. Anti-GST AlphaLISA acceptor beads and AlphaScreen streptavidin donor beads (Perkin Elmer) were used to detect the interaction of GST-CCNT1 (AA1-300) and biotin-AFF4 (AA32-67). (B-C) Optimization of the AlphaLISA assay with various biotin-AFF4 peptide and GST-CCNT1 concentrations. No CCNT1 (B) and mutant AFF4 (C) were used as negative controls. Data are represented as Mean+/−SD. (D) Scheme for chemical synthesis of SEC inhibitors KL-1 and KL-2. Reagents and conditions: a. LDA, THF, −78° C., 15 min., then diethyl oxalate, −78° C. to room temperature. b. […] 293T cells were treated with 20 μM of KL-1 or KL-2 for 6 hr, and the protein levels of BRD2, BRD4, Pol II (RPB1), SPT5, MED26, MYC, HSP90 (load control) and Tubulin (load control) were measured by western blotting. […] HCT-116 cells were treated with 20 μM of KL-1 or KL-2 for 6 hr, and the protein levels of AFF1, AFF4, CCNT1, CDK9 and Tubulin (load control) were determined by western blotting. […] The log2CPM (counts per million) of the SEC subunits were calculated with HTseq. […]
RNA-seq Analysis. […] Exonic reads were assigned to specific genes from Ensembl release 75 using Bioconductor package GenomicRanges countOverlaps. […]

COc1cccc(C(=O)CC(=O)C(=O)Nc2cc(Cl)ccc2C)c1 [KL-1, N-(5-chloro-2-methylphenyl)-4-oxo-4-(3-methoxyphenyl)-2-oxobutanamide]
induction of heat shock inducible genes [1]: block induction of known heat shock inducible genes
mRNA levels of SEC components [2]: do not result in decreased mRNA levels of SEC components
